Data: patent US20220389420A1, “AGENTS FOR THE TREATMENT OF PATIENTS WITH NSCLC AND METHODS TO PREDICT RESPONSE” (CENTRE NATIONAL DE LA RECHERCHE SCIENTIFIQUE, priority 2016, published 2022)

Columns and labels:
[1] = test system: H1975 cells; assay: Cisplatin resistance validation in H1975 cells; assay type: cell-based; conditions: H1975, homozygous c.818G>A mutation of the TP53 gene
From the text: (§1) (B) Validation of the effects of cisplatin in two LUAD cell lines, H1299 (with a homozygous partial deletion of the TP53 gene) and H1975 (homozygous for the c.818G<A mutation of the TP53 gene).

[2] = test system: human BIM 3′UTR; assay: Luciferase assay, BIM 3′UTR psiCHECK-2 construct in HEK293 cells; assay type: cell-based; conditions: two days after co-transfection, versus pre-miR-Neg
Method: (§2) (B): Results of luciferase assays in HEK293 cells transfected with the indicated constructions and pre-miR-24-3p or control miRNA.
(§3) Cells were harvested two days after transfection and luciferase activity were analysed. All renilla luciferase activities were normalized with firefly luciferase activity. **p<0.01.
(§4) Luciferase assay. Molecular constructs were made in psiCHECK-2 (Promega) by cloning behind the Renilla luciferase in the XhoI and NotI restrictions sites, annealed oligonucleotides derived from BIM, PUMA 3′ UTR. HEK293 cells were plated into 96-well and cotransfected using lipofectamin 2000 (Invitrogen) with 0.2 μg of psiCHECK-2 plasmid construct and pre-miR-24-3p or control miRNA at different concentrations. 48 hours after transfection, Firefly and Renilla Luciferase activities were measured using the Dual-Glo Luciferase assay (Promega).

[3] = test system: PUMA 3′UTR; assay: Luciferase assay, PUMA 3′UTR psiCHECK-2 construct in HEK293 cells; assay type: cell-based, human; conditions: two days after co-transfection, versus pre-miR-Neg
Method: as §2, §3, §4

[4] = test system: A549 cells; assay: Functional genetic screen for miRNAs inducing cisplatin resistance; assay type: cell-based; conditions: pre-miR library transfected two days, then cisplatin 60 μM three days, Cell Titer Glow assay
Method: A549 cells were transfected with the pre-miR library for two days and the transfected cells were then exposed to cisplatin at 60 μM for three days. Cell viability was measured in single well using Cell Titer Glow assay.
(A): Plot of normalized viability versus −log10 FDR-adjusted P-value for all miRNAs overexpressed in A549 cells. Vertical dashed lines denote the selected normalized viability cutoff, while the Horizontal line denotes the 0.01 selected FDR-adjusted P-value cutoff. Each dot represents a miRNA. Dots surrounded in the upper right quadrant represent miRNAs associated with cisplatin resistance at the chosen cutoffs. The standardized residual viability of the miR-24-3p miRNA was estimated at 4.9512.
Functional genetic screen. Mimics were transfected in authenticated A549 lung adenocarcinoma cell line in 96 well plate format. 48 h following transfection, cells were exposed to cisplatin at 60 μM (2 times DL50; DL50 corresponding to the drug concentration lethal to 50% of the tumor cells) for three days. Viability was assessed using the cell titer glo assay (Promega). […]
miRNA candidate selection. miRNA candidates were selected for further analysis based on statistical significance (p<0.01) and degree of resistance induced (assessed by viability after drug exposure, normalized viability above 3).

[5] = test system: A549 cells; assay: Caspase 3 dependent apoptotic response induced by cisplatin (Western blot); assay type: cell-based; conditions: miRNA overexpression in A549 cells
[6] = test system: A549 cells; assay: DNA damage response induced by cisplatin (nuclear foci, confocal microscopy); assay type: cell-based; conditions: 7 h following cisplatin exposure, miRNA overexpression
Method: A549 cells overexpressing miR-24-3p were exposed to cisplatin for 7 h and nuclear foci of (i) phosphorylated histone H2A.X at SER139 (y-HAX) and (ii) phosphorylated ATM at Ser1981 (p-ATM) were assessed by confocal microscopy.
(C): percentage of cells (n=3) exposed to cisplatin and containing more than five nuclear foci of y-HAX and phosphor-ATM, respectively after miR-24-3p overexpression.
Immunofluorescence analysis. A549 cells were grown on a Round Glass Coverslips Ø16 mm (thermo scientific) placed inside a 12 Multiwell Plate. Coverslips slides were washed in phosphate-buffered saline and fixed in 4% paraformaldehyde for 15 min, cells were then permeated using 0.1% Triton X-102 (Agilent Technologies) for 10 min. and blocked with PBS solution containing BSA (3%) for 30 min. Incubation with primary antibodies was performed in a blocking solution BSA (1%) at 37° C. for 1 h. After three washes with PBS, cells were incubated with secondary antibodies. Forty five min later, Coverslips slides were fixed on microscope slides using ProLong Gold Antifade Reagent with DAPI (Invitrogen). Fluorescence was viewed with an FV10i Olympus confocal scanning microscope.

[7] = test system: A549 cells; assay: Cisplatin sensitivity of A549 cells overexpressing miRNA (Annexin V/PI, ATP-based viability); assay type: cell-based
Method: A549 cells were transfected with pre-miR-24-3p for 2 days and the transfected cells were then exposed to either cisplatin or vinorelbin.
(A): Annexin V/PI staining of A549 cells overexpressing miR-24-3p and exposed to 60 μM cisplatin for 24 h.
(B): Vinorelbin dose response analysis of A549 cells overexpressing miR-24-3p. An ATP-based assay was used to assess cell viability.
(§5) Transfection. Pre-miR-24-3p, and control miRNA (miR-Neg #1) were purchased from Life technologies. For miR-24-3p knockdown experiments, LNA anti-miR-24-3p and LNA negative control were ordered from Exiqon. siRNA directed against BIM, PUMA, PNPO and PDXK were purchased from Life technologies. A549 and H1299 cells were grown in 10% FCS in DMEM and transfected at 30 to 40% confluency in 6-12- or 96 well plates using Lipofectamin RNAi MAX™ (Life technologies) with pre-miRNA, siRNAs LNA inhibitors at a final concentration of 5 nM unless indicated.
Annexin V assay. Annexin-V-FITC apoptosis detection kit (Life technologies) was used to detect apoptotic activity. […] Annexin-V-FITC binding was determined by flow cytometry (excitation wavelength of 488 nm; emission wavelength of 530 nm) using the FITC signal detector (FL1), and propidium iodide staining was detected by the phycoerythrin emission signal detector (FL2).

[8] = test system: H1299 cells; assay: Cisplatin resistance validation in H1299 cells; assay type: cell-based; conditions: H1299, homozygous partial deletion of the TP53 gene
From the text: (A) Kill curve of H1299 cells (with a homozygous partial deletion of the TP53 gene) overexpressing miR-24-3p or a miRNA control and exposed to increasing dose of cisplatin.
as §1, §5
Functional genetic screen validation for miR-24-3p. Data were confirmed independently on a distinct lung adenocarcinoma cell line (H1299). Specificity to cisplatin resistance was assessed using docetaxel and vinorelbine.

Q: For “pre-miR-24-3p: miRNA mimic purchased from Life technologies, used to overexpress miR-24-3p (UGGCUCAGUUCAGCAGGAACAG, SEQ ID No:1) (listed as RNA, chemistry not given here)”, which cisplatin resistance [1] is on record?
A: contributed to cisplatin resistance independently of p53

Q: And the “direct targeting of BIM 3′UTR (renilla luciferase normalized with firefly)” value [2]?
A: direct targets

Q: What about the “direct targeting of PUMA 3′UTR (renilla luciferase normalized with firefly)” value [3] of the same substance?
A: direct targets

Q: What about the standardized residual viability [4] of the same substance?
A: 4.9512

Q: And the “caspase 3 dependent apoptotic response induced by cisplatin” value [5]?
A: strongly inhibits

Q: What about the ATM signaling [6] of the same substance?
A: decreased ATM signaling

Q: And the “DNA damage (phospho-yH2AX nuclear foci)” value [6]?
A: less DNA damage

Q: And the “resistance to platinum based-compounds (cisplatin, carboplatin, oxaliplatin)” value ([7]; A549 cells overexpressing the miRNA, comparison with vinorelbin treatment)?
A: strongly resistant

Q: What about the response to cisplatin ([7]; A549 cells transfected with pre-miR, versus cells not overexpressing miR-24-3p) of the same substance?
A: the response to cisplatin was lesser

Q: What about the cisplatin resistance [8] of the same substance?
A: contributed to cisplatin resistance independently of p53
